In the assay the target is A2 Adenosine receptor (Rattus norvegicus, UniProt P30543). As to the kind of experiment: biochemical. Here is the method: The membrane preparation is obtained as follows: Frozen pellets of PC12 cells are washed twice with ice cold, buffered, physiological saline and the cells recovered by centrifugation (1500 G) at 3° C. The separated cells are then suspended in hypotonic solution (distilled water), allowed to stand on ice for 30 minutes and are then carefully homogenized using a standard high-speed homogeniser with periodic ice-cooling to obtain a fine suspension. […] The mixture is then incubated at 37° C. After 20 minutes, the reaction is terminated by dilution with ice-cold buffer and transfer onto ice. The material obtained containing the cell membranes is recovered by centrifugation and washed by resuspension in buffer and recentrifugation. The pellet produced is then resuspended in ice-cold buffer using a hand-driven homogenizer. The resultant membrane suspension is frozen and stored under liquid nitrogen until required.
Chain of A2 Adenosine receptor (P30543 whole entry): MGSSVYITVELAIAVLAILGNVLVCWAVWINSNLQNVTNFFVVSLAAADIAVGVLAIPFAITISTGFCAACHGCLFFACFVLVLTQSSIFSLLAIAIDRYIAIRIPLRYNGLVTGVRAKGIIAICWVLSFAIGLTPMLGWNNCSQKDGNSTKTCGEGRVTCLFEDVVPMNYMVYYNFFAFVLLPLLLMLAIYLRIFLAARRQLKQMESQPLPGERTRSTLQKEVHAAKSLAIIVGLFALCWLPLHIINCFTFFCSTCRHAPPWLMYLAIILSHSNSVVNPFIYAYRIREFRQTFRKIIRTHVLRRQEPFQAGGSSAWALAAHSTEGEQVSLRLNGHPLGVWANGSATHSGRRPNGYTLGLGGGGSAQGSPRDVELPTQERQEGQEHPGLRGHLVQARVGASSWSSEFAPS
After incubation, the samples are rapidly filtered over glass-fibre mats and the filter mats are washed to remove non-receptor-bound radioligand. Receptor-bound radioligand entrapped on the filter mats is then determined by liquid scintillation counting. […] The specific binding (defined as the difference between the total binding and the non-specific binding) in the presence of the particular test compound is determined and compared with the control value.

The structures appear in SMILES notation.

Usually IC50 stands for the concentration at which inhibition is half-maximal. Lower therefore signals greater potency.

Consider `Nc1nc(Oc2ccccc2)nc2nc(-c3ccco3)nn12` [Example 2, 7-amino-2-(2-furyl)-5-phenoxy[1,2,4]triazolo[1,5-a][1,3,5]triazine], for which the half-inhibitory concentration (IC50) was about 10 nM.

These data come from patent US5326869A (priority 1991, dated 1994).
